The test system of assay [1] is yeast PEX7 bound to the ∆APH mutant of GST-tagged PEX39. Put plainly: Competitive binding: peptide displacement of PEX7 from GST-tagged ∆APH PEX39 beads (Fig. 8b). The following applies: for Stripping of PEX7 off PEX39 lacking the APH: peptide competition, Fig. 8b. On the set-up: species or system yeast (S. cerevisiae). As to the method:
For the assay shown in Fig. 8b, the beads were first incubated with yeast PEX7 and the GST-tagged ∆APH variant of yeast PEX39 (each at 1 µM) for 30 min at 25 °C with agitation. Varying concentrations of the peptides, as indicated in the text, were then added and the reactions were incubated for a further 1 h under the same conditions. The beads were finally sedimented and the resulting supernatant fractions resolved by SDS–PAGE as above.
To calculate the fraction bound in the quantitative binding assay, digitized images of Coomassie-stained gels were first converted into 16-bit grayscale and their pixel intensities inverted. The mean pixel intensity was then measured within a rectangular selection encompassing each PEX7 protein band and the mean intensity of the background was subtracted from the measured values. The background-corrected intensities (corresponding to unbound PEX7 remaining in solution) were in turn subtracted from the intensity of the PEX7 band in a sample without PEX39 (that is, total PEX7). The resulting difference (corresponding to PEX7 that had bound to the beads) was finally divided by the total PEX7 intensity to yield the fraction bound. The data were fitted either to a standard binding isotherm or a competitive-binding isotherm, as appropriate, to estimate the observed binding constants.

A further assay has as its system yeast PEX7. Put plainly: Bead-binding assay: peptide-conjugated beads, recruitment of PEX7–GFP or PTS2–GFP. Details: species or system yeast (S. cerevisiae). The note with it: 1 h; for Recruitment of PTS2–GFP to peptide-conjugated beads: 1 µM PEX7 and 1 µM receptor, 1 µM cargo; for Recruitment of PEX7–GFP to peptide-conjugated beads: peptide on thiol-reactive beads, fluorescence microscopy. The source says: (§1) Cysteine-containing peptides were covalently conjugated to thiol-reactive SulfoLink coupling resin (Thermo Fisher, catalogue number 20401) according to the manufacturer’s instructions. The prepared beads were then mixed with Assay Buffer containing the fluorescently labelled protein as well as additional components indicated in the text, and the resulting bead suspensions were transferred to a 384-well glass-bottomed plate (Cellvis, P384-1.5H-N). GST-fusion proteins were instead mixed with glutathione agarose 4B (Prometheus, 20-543) in Assay Buffer containing the fluorescently labelled protein and additional components indicated in the text; the resulting bead suspensions were then transferred to a glass-bottomed plate as above. The plates were incubated at RT for the durations specified in the text and directly imaged on the spinning-disk confocal platform described earlier for peroxisomal import reactions in Xenopus egg extract. Note that imaging the beads directly in the binding reaction preserves the equilibrium and thereby allows even weak interactions to be detected. Fluorescence was collected through a Nikon ×10 0.45 NA Plan Apo air objective, and images were acquired using the Nikon NIS-Elements software and a 16-bit digitizer without binning. Imaging parameters were configured to maximize the SNR while avoiding saturation. Samples intended to be compared were imaged using identical acquisition settings.

The test system of assay [2] is PEX7–receptor–cargo complex on PEX39-coated beads. Put plainly: Bead-binding assay: recruitment of PEX7–receptor–cargo complex to PEX39-coated beads (Fig. 7d, 8a). On the set-up: species or system yeast (S. cerevisiae). The following applies: 100 µM peptide, overnight, Fig. 8a.
Source text: as §1

Assay [3] deals with YG hydrogel (wild-type YG-domain polypeptide of PEX13). Put plainly: YG hydrogel permeation assay, wild-type hydrogel (Fig. 2, Fig. 3g, Extended Data Fig. 9d). The following applies: for Displacement: PEX5-21 + PEX7. As to the method:
A solution of the purified wild-type YG-domain polypeptide (or the variant lacking the KPWE motif) was concentrated to 2 mM in 50 mM HEPES·NaOH pH 7.8 at RT, 2 M urea and 2 mM TCEP. Aliquots of 2 µl were then spotted on the bottom of multiple wells of a 96-well glass-bottomed plate (Cellvis, P96-1.5H-N), which was then sealed with a gas-impermeable AlumaSeal II film (Hampton Research, HR8-069) to prevent desiccation and incubated at RT for 24 h. Before each assay, the resulting gels were equilibrated overnight at RT in a 100-fold excess of Assay Buffer (25 mM HEPES·NaOH pH 7.8 at RT, 150 mM NaCl and 1 mM TCEP). A 0.5 µM solution of fluorescently labelled protein in Assay Buffer was then added to the samples, with or without additional components at the concentrations indicated in the text, and incubated at RT. Gels were imaged at the times indicated in the text using a Nikon A1R point-scanning confocal system consisting of an inverted Nikon Eclipse Ti microscope and a Nikon ×20 0.75 NA Plan Apo air objective. The objective was centred on the gel edge and focus was maintained 5 µm above the glass surface using the Nikon Perfect Focus System. Fluorescence was excited through a 405/488/561/647 quad-band dichroic (Chroma), using a 488-nm solid-state laser (Coherent) and a galvano scanner. A 50-nm emission band was collected on a gallium arsenide phosphide detector, using an ET525/50m (525 ± 25 nm) single-band bandpass filter (Chroma) and a pinhole dilated to 0.9 Airy units. Images were acquired using the Nikon NIS-Elements software with a pixel size of 1 µm and a 12-bit digitizer. Imaging parameters were configured to maximize the SNR while avoiding saturation. All samples intended to be compared were imaged using identical acquisition settings.
For the YG hydrogel permeation assay, images were first oriented such that each gel edge faced the same direction. Fluorescence profiles across the buffer–gel interface were then generated by centering a 60 × 300 µm rectangular area on the gel edge and then measuring the mean fluorescence at each position within this selection. To express the resulting values in terms of fold enrichment, the fluorescence at each position along the selection was normalized to the average fluorescence in the buffer and plotted in terms of the distance from the gel edge.
To calculate permeation rates through the YG hydrogel, a 60 × 300 µm rectangular area was first centred on the gel edge. The resulting region was then thresholded to demarcate the permeation zone (that is, the distance traversed by the fluorescent species) from the buffer and non-permeated part of the gel. The width of the area above the threshold was then measured and plotted as a function of time. A linear fit to the data yielded the permeation rate.

Another assay has as its target T1, yeast PEX7, P39108.
T1 chain: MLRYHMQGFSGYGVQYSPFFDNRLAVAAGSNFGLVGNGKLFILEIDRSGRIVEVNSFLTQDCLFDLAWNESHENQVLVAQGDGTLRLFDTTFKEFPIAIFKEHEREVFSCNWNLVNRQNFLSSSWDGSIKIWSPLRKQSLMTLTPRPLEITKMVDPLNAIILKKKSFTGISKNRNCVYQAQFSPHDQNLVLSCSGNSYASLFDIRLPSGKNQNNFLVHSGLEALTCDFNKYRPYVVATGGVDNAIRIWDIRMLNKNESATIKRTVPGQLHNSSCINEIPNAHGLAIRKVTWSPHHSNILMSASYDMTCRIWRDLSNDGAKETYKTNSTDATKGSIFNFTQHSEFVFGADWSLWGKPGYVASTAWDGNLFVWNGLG
Put plainly: bead sedimentation (GST pull-down depletion) assay, SDS-PAGE with Coomassie quantification of PEX7 left in the supernatant. The note with it: chain shown with the change; 1 µM yeast PEX7; varying GST-PEX39 concentrations; 1 h; 25 °C; parent: 0.60 ± 0.056.

In assay [4] the target is T2, yeast PEX7 fused at the C terminus to GFP (PEX7–GFP) (yeast (S. cerevisiae), UniProt P39108 1-375).
T2 construct: PEX7, yeast (S. cerevisiae); not shown: GST, N-terminal, cleaved; GFP, C-terminal, kept
T2 sequence (looked up): T1 chain
Put plainly: YG hydrogel release assay (confocal microscopy); hydrogels equilibrated 3 h at RT with 0.5 µM PEX7–GFP or PEX5–GFP, with or without PTS2 peptide and receptor; PEX39 then spiked in and gels imaged every 2 min for 1 h. The following applies: both partners purified.

Changes are numbered by the printed parent chain.

With “CSSTAVPEPRWKPTSASLEE [scrambled peptide, KPWE peptide with amino acids 8 and 10–13 rearranged]”, the Fraction bound in assay [1] ([Peptide] 10 µM, replicate 1) was 0.936; in assay [1] ([Peptide] 10 µM, replicate 2), 0.865; in assay [1] ([Peptide] 10 µM, replicate 3) it was 0.914; in assay [1] ([Peptide] 30 µM, replicate 1), 0.947; in assay [1] ([Peptide] 30 µM, replicate 2), 0.840; in assay [1] ([Peptide] 30 µM, replicate 3), 0.887. Also, the Fraction bound in assay [1] ([Peptide] 100 µM, replicate 1) worked out at 0.965; in assay [1] ([Peptide] 100 µM, replicate 2), 0.864; in assay [1] ([Peptide] 100 µM, replicate 3), 0.888; in assay [1] ([Peptide] 300 µM, replicate 1) it was 0.952; in assay [1] ([Peptide] 300 µM, replicate 2), 0.871; in assay [1] ([Peptide] 300 µM, replicate 3), 0.887. Moreover, the Fraction bound in assay [1] ([Peptide] 1000 µM, replicate 1) is given as 0.902; in assay [1] ([Peptide] 1000 µM, replicate 2), 0.861; in assay [1] ([Peptide] 1000 µM, replicate 3), 0.848. Further, the “Stripping of PEX7 off PEX39 lacking the APH” value in assay [1] is listed as “could not”. Also, the “Recruitment of PTS2–GFP to peptide-conjugated beads” value with yeast PEX7 is reported as “No binding was seen”. In the assay with yeast PEX7, the “Recruitment of PEX7–GFP to peptide-conjugated beads” value is reported as “could not”. Moreover, the “Effect of peptide on recruitment of the PEX7–receptor–cargo complex to PEX39-coated beads” value in assay [2] is on record as “had no effect”.

As to “CSSTAVPRPKPWETSASLEE [KPWE peptide, residues 2–20 of S. cerevisiae PEX13 with an additional N-terminal cysteine]”, the “Kobs (observed binding constant)” value in assay [1] (PEX7 and GST-PEX39 ∆APH each 1 µM, peptide added 1 h, 25 °C, competitive-binding isotherm, mean ± s.e.m., three independent experiments, ND = binding not detectable) was found to be 41 ± 1.2 µM. The Fraction bound in assay [1] ([Peptide] 10 µM, replicate 1) is given as 0.810; in assay [1] ([Peptide] 10 µM, replicate 2) it was 0.769; in assay [1] ([Peptide] 10 µM, replicate 3), 0.841; in assay [1] ([Peptide] 30 µM, replicate 1), 0.666; in assay [1] ([Peptide] 30 µM, replicate 2), 0.688; in assay [1] ([Peptide] 30 µM, replicate 3), 0.732. Further, the Fraction bound in assay [1] ([Peptide] 100 µM, replicate 1) came out at 0.458; in assay [1] ([Peptide] 100 µM, replicate 2), 0.521; in assay [1] ([Peptide] 100 µM, replicate 3), 0.552; in assay [1] ([Peptide] 300 µM, replicate 1), 0.302; in assay [1] ([Peptide] 300 µM, replicate 2), 0.372; in assay [1] ([Peptide] 300 µM, replicate 3), 0.402. The Fraction bound in assay [1] ([Peptide] 1000 µM, replicate 1) was determined as 0.141; in assay [1] ([Peptide] 1000 µM, replicate 2), 0.198; in assay [1] ([Peptide] 1000 µM, replicate 3), 0.200. Besides, the “Stripping of PEX7 off PEX39 lacking the APH” value in assay [1] was “could strip off PEX7 from PEX39 lacking the APH”. The “Recruitment of PTS2–GFP to peptide-conjugated beads” value in the assay on yeast PEX7 is “could recruit PTS2–GFP only when PEX7 and the receptor were both present”. In addition, the “Recruitment of PEX7–GFP to peptide-conjugated beads” value in the assay with yeast PEX7 was “could recruit yeast PEX7 fused at the C terminus to GFP”. For the same molecule, the “Effect of peptide on recruitment of the PEX7–receptor–cargo complex to PEX39-coated beads” value in assay [2] is listed as “no longer efficiently recruited to PEX39-coated beads”.

Take “PTS1: mEGFP fused at the C terminus to an enhanced PTS1 import signal (GYKGLKSKL)”: the Displacement in assay [3] (0 min, replicate 1) is 0.000 µm; in assay [3] (0 min, replicate 2), 0.000 µm; in assay [3] (0 min, replicate 3), 0.000 µm; in assay [3] (30 min, replicate 1), 44.992 µm; in assay [3] (30 min, replicate 2), 39.993 µm; in assay [3] (30 min, replicate 3), 31.994 µm. For the same molecule, the Displacement is reported as 64.988 µm in assay [3] (60 min, replicate 1); 59.989 µm in assay [3] (60 min, replicate 2); 45.992 µm in assay [3] (60 min, replicate 3).

B1: GST-tagged wild-type yeast PEX39 (GST–PEX39), P47087 ΔRPWE (RPWE motif converted to alanine) (protein)
chain: MAAGGELSYEELLDHILNNKPIPNIVEVPNVTLDEGLASTPSLRPRPAAAAGQLQHQSHQGSLDKPNISLDIDQESLEGMTSLTRLSECYDIQSKLQINDSDNDNDDNNNDNNKGDGNDDDNNTVTANPTAR
Consider B1, for which the other: Kobs (observed binding constant) with yeast PEX7, P39108 came out at 190 µM.

B2: PEX39–GFP: PEX39 fused at the C terminus to a GSG linker and mEGFP (protein)
chain: B1 chain with A48R, A49P, A50W, A51E
modifications: left off: GST, N-terminal, cleaved | GFP, C-terminal, kept
notes: PEX39 fused at the C terminus to a GSG linker and mEGFP
With B2, the “Entry into YG hydrogel” value in assay [3] (wild-type hydrogel) is “did not by itself enter the YG hydrogel”.

B3: wild-type yeast PEX39 (natural protein, UniProt P47087 1-132, looked up)
chain: B1 chain with A48R, A49P, A50W, A51E
notes: PEX39, yeast; also called WT; not shown: GST, N-terminal, cleaved
In the case of B3, the binding result in assay [4] is given as “binds”.
